Laboratory results: ChEMBL document CHEMBL3832761, “MMV Pathogen Box Bioactivity Data” (2017)
Converted amounts (≈) assume the structure as drawn.

Legend:
HepG2 [1] = experiment: HepG2 inhibition at 10 uM (%) Cytotoxicity; assay type: functional; conditions: Homo sapiens
Plasmodium berghei = experiment: Antimalarial activity: Liver Stage Plasmodium berghei sporozoite Luciferase assay: inhibition at 10 uM (%); assay type: functional
Plasmodium falciparum [2] = experiment: Antimalarial activity: Asexual Blood Stage Plasmodium falciparum Dd2 IC50 (uM); assay type: functional, organism-based
Plasmodium falciparum [3] = experiment: Antimalarial activity: Asexual Blood Stage Plasmodium falciparum 3D7 IC50 (uM); assay type: functional, organism-based
[4] = HL60 CC50 (uM) Cytotoxicity; assay type: functional; conditions: HL-60
Plasmodium falciparum [5] = experiment: Antimalarial activity: Asexual Blood Stage Plasmodium falciparum W2 IC50 (uM); assay type: functional, organism-based
Plasmodium falciparum [6] = experiment: Antimalarial activity: Gametocytes Plasmodium falciparum NF54 Gametocytes Stage V: inhibition at 10 uM (%); assay type: functional
HepG2 [7] = experiment: Cytotoxicity data HepG2 CC20 (uM); assay type: functional
[8] = system: Mycobacterium tuberculosis; experiment: AntiMycobacterium tuberculosis activity 2-week 7H9/DPPC/cholesterol/BSA/Tx MIC (uM); assay type: functional; conditions: 336 h
HepG2 [9] = experiment: HepG2 galactose CC50 (uM) Cytotoxicity; assay type: functional; conditions: Homo sapiens, HepG2
[10] = system: Mycobacterium tuberculosis; experiment: AntiMycobacterium tuberculosis activity 1-week 7H9/ADC/Tw MIC (uM); assay type: functional; conditions: 168 h
[11] = system: Mycobacterium tuberculosis; experiment: (§1) AntiMycobacterium tuberculosis activity day 10 in 7H9/2.5mM butyrate/pH6/0.1mM nitrite MIC90 (uM); assay type: functional; conditions: 240 h
[12] = system: Mycobacterium tuberculosis; experiment: AntiMycobacterium tuberculosis activity 2-week Alamar Blue 7H9/cholesterol/BSA/Tx MIC (uM); assay type: functional; conditions: 336 h
[13] = system: Mycobacterium tuberculosis; experiment: AntiMycobacterium tuberculosis activity 2-week 7H9/glucose/BSA/Tx MIC (uM); assay type: functional; conditions: 336 h
[14] = system: Mycobacterium tuberculosis; experiment: AntiMycobacterium tuberculosis activity 2-week Alamar Blue 7H9/ADC/Tw MIC (uM); assay type: functional; conditions: 336 h
[15] = system: Mycobacterium tuberculosis; experiment: AntiMycobacterium tuberculosis activity 1-week 7H9/cholesterol/BSA/Tx MIC (uM); assay type: functional; conditions: 168 h
[16] = system: Mycobacterium tuberculosis; experiment: AntiMycobacterium tuberculosis activity 1-week 7H9/glucose/BSA/Tx MIC (uM); assay type: functional; conditions: 168 h
[17] = system: Mycobacterium tuberculosis; experiment: AntiMycobacterium tuberculosis activity day 21 in 7H9/2.5mM butyrate/pH6/0.1mM nitrite MIC90 (uM); assay type: functional; conditions: 504 h
[18] = system: Mycobacterium tuberculosis; experiment: AntiMycobacterium tuberculosis activity 2-week GAST/Fe MIC (uM); assay type: functional; conditions: 336 h
HepG2 [19] = experiment: HepG2 glucose CC50 (uM) Cytotoxicity; assay type: functional; conditions: Homo sapiens, HepG2
[20] = system: Mycobacterium tuberculosis; experiment: as §1; assay type: functional; conditions: 240 h; remark: listed apart in the source
[21] = system: Mycobacterium tuberculosis; experiment: AntiMycobacterium tuberculosis activity 2-week 7H9/ADC/Tw MIC (uM); assay type: functional; conditions: 336 h
[22] = system: Mycobacterium tuberculosis; experiment: AntiMycobacterium tuberculosis activity 1-week 7H9/DPPC/cholesterol/BSA/Tx MIC (uM); assay type: functional; conditions: 168 h
[23] = system: Mycobacterium tuberculosis; experiment: AntiMycobacterium tuberculosis activity 1-week GAST/Fe MIC (uM); assay type: functional; conditions: 168 h
[24] = system: Mycobacterium tuberculosis; experiment: AntiMycobacterium tuberculosis activity day 21 MIC99 in 7H9/2.5mM butyrate/pH6/0.1mM nitrite MIC99 (uM); assay type: functional; conditions: 504 h

Compound: CC(C)(C)c1cc(C(=O)Nc2cccnc2)cc(C(=O)Nc2cccnc2)c1
- inhibition at 10 µM (HepG2 [1]): 19%
- Inhibition (Plasmodium berghei): 12%
- IC50 (Plasmodium falciparum [2]): 1630 nM
- IC50 (Plasmodium falciparum [3]): 900 nM
- CC50 [4]: > 50000 nM
- IC50 (Plasmodium falciparum [5]): 1880 nM
- Inhibition (Plasmodium falciparum [6]): 10%
- CC20 (HepG2 [7]): 17200 nM

Compound: CCC(NC(=O)c1ccccc1NC(=O)c1ccc(C)cc1)C(=O)OC (stereo not given)
- inhibition at 10 µM (HepG2 [1]): 5%
- Inhibition (Plasmodium berghei): 0%
- IC50 (Plasmodium falciparum [3]): 160 nM
- CC50 [4]: > 50000 nM
- Inhibition (Plasmodium falciparum [6]): 29%

Compound: CN1CCN(c2cc(-c3ccc(F)cc3)nc(-c3ccncc3)n2)CC1
- MIC [8]: 6.25 µM (≈ 2.18 µg/mL)
- CC50 (HepG2 [9]): > 50000 nM
- MIC [10]: 37 µM (≈ 12.9 µg/mL)
- MIC90 [11]: 6.25 µM (≈ 2.18 µg/mL)
- MIC [12]: 6.25 µM (≈ 2.18 µg/mL)
- MIC [13]: 9.4 µM (≈ 3.28 µg/mL)
- MIC [14]: 12.5 µM (≈ 4.37 µg/mL)
- MIC [15]: 12.5 µM (≈ 4.37 µg/mL)
- MIC [16]: 12.5 µM (≈ 4.37 µg/mL)
- MIC90 [17]: 12.5 µM (≈ 4.37 µg/mL)
- MIC [18]: 12.5 µM (≈ 4.37 µg/mL)
- CC50 (HepG2 [19]): > 50000 nM
- MIC90 [20]: > 50 µM
- MIC [21]: 25 µM (≈ 8.74 µg/mL)
- MIC [22]: 6.25 µM (≈ 2.18 µg/mL)
- MIC [23]: 19 µM (≈ 6.64 µg/mL)
- MIC [24]: > 50 µM

Compound: O=C(Nc1ccnc(-c2cccnc2)n1)c1cc(C(F)(F)F)cc(C(F)(F)F)c1
- inhibition at 10 µM (HepG2 [1]): 13%
- Inhibition (Plasmodium berghei): 0%
- IC50 (Plasmodium falciparum [2]): > 2000 nM
- IC50 (Plasmodium falciparum [3]): 1050 nM
- CC50 [4]: > 50000 nM
- Inhibition (Plasmodium falciparum [6]): 10%
- CC20 (HepG2 [7]): >80000 nM

Compound: Nc1ncc(-c2cn[nH]c2)cc1-c1nc2cc(Cl)cnc2[nH]1
- inhibition at 10 µM (HepG2 [1]): 7%
- Inhibition (Plasmodium berghei): 0%
- IC50 (Plasmodium falciparum [3]): 400 nM
- CC50 [4]: > 50000 nM
- Inhibition (Plasmodium falciparum [6]): 0%
- CC20 (HepG2 [7]): 2820 nM

Compound: O=C(Nc1cccc(-c2ccc(NCCCN3CCCC3)nc2)c1)c1ccccc1
- inhibition at 10 µM (HepG2 [1]): 0%
- Inhibition (Plasmodium berghei): 25%
- IC50 (Plasmodium falciparum [2]): 2740 nM
- IC50 (Plasmodium falciparum [3]): 850 nM
- CC50 [4]: > 50000 nM
- IC50 (Plasmodium falciparum [5]): 1660 nM
- Inhibition (Plasmodium falciparum [6]): 7%
- CC20 (HepG2 [7]): 17200 nM

Compound: CS(=O)(=O)c1cccc(-c2cnc3[nH]cc(-c4ccc(CCC(=O)O)cc4)c3c2)c1
- inhibition at 10 µM (HepG2 [1]): 16%
- Inhibition (Plasmodium berghei): 47%
- IC50 (Plasmodium falciparum [2]): 680 nM
- IC50 (Plasmodium falciparum [3]): 500 nM
- CC50 [4]: > 50000 nM
- IC50 (Plasmodium falciparum [5]): 910 nM
- Inhibition (Plasmodium falciparum [6]): 38%
- CC20 (HepG2 [7]): >80000 nM

Compound: CC(C)(C)c1cc(C(=O)N2CCN(c3nccnc3C#N)CC2)n(Cc2ccccc2)n1
- inhibition at 10 µM (HepG2 [1]): 0%
- Inhibition (Plasmodium berghei): 42%
- IC50 (Plasmodium falciparum [2]): 1000 nM
- IC50 (Plasmodium falciparum [3]): 600 nM
- CC50 [4]: > 50000 nM
- IC50 (Plasmodium falciparum [5]): 1300 nM
- Inhibition (Plasmodium falciparum [6]): 8%
- CC20 (HepG2 [7]): 22900 nM

Compound: CC(C)(C)CN1C(=O)C(c2ccccc2)(c2ccccc2)N=C1N
- inhibition at 10 µM (HepG2 [1]): 0%
- Inhibition (Plasmodium berghei): 25%
- IC50 (Plasmodium falciparum [2]): 1500 nM
- IC50 (Plasmodium falciparum [3]): 800 nM
- CC50 [4]: 6500 nM
- IC50 (Plasmodium falciparum [5]): > 2000 nM
- Inhibition (Plasmodium falciparum [6]): 2%
- CC20 (HepG2 [7]): 1170 nM

Compound: COc1cccc2c(C)nc(N=C(N)N)nc12
- inhibition at 10 µM (HepG2 [1]): 20%
- Inhibition (Plasmodium berghei): 42%
- IC50 (Plasmodium falciparum [2]): > 2000 nM
- IC50 (Plasmodium falciparum [3]): 1060 nM
- CC50 [4]: > 50000 nM
- Inhibition (Plasmodium falciparum [6]): 0%
- CC20 (HepG2 [7]): 8380 nM

Compound: OCc1ccc(-c2cncc(Nc3cccc(Cl)c3)c2)cc1
- inhibition at 10 µM (HepG2 [1]): 7%
- Inhibition (Plasmodium berghei): 57%
- IC50 (Plasmodium falciparum [2]): 10 nM
- IC50 (Plasmodium falciparum [3]): 30 nM
- CC50 [4]: > 25000 nM
- Inhibition (Plasmodium falciparum [6]): 5%
- CC20 (HepG2 [7]): 20500 nM

Compound: CC(=O)Nc1ccc(NC(=O)c2cc(-c3cc(Cl)ccc3O)n[nH]2)cc1
- inhibition at 10 µM (HepG2 [1]): 7%
- Inhibition (Plasmodium berghei): 0%
- IC50 (Plasmodium falciparum [2]): 480 nM
- IC50 (Plasmodium falciparum [3]): 350 nM
- CC50 [4]: > 50000 nM
- IC50 (Plasmodium falciparum [5]): 510 nM
- Inhibition (Plasmodium falciparum [6]): 6%
- CC20 (HepG2 [7]): >80000 nM

Compound: CCCS(=O)(=O)N1CCC(CO)(Cc2ccccc2C(F)(F)F)CC1
- inhibition at 10 µM (HepG2 [1]): 0%
- Inhibition (Plasmodium berghei): 43%
- IC50 (Plasmodium falciparum [2]): 990 nM
- IC50 (Plasmodium falciparum [3]): 1090 nM
- CC50 [4]: > 50000 nM
- IC50 (Plasmodium falciparum [5]): 1550 nM
- Inhibition (Plasmodium falciparum [6]): 19%
- CC20 (HepG2 [7]): >80000 nM
